Results published in patent US9981983B2, “Thienopyranones as kinase inhibitors” (SignalRx Pharmaceuticals, Inc., priority 2008, dated 2018).

Columns and labels:
Format in all cases: cell-based
LNCaP cells = experiment: Oxidative stress of prostate cancer cells (8-iso-Prostaglandin F2α ELISA); conditions: for OD450 nm reading / 8-iso-Prostaglandin F2α generated: 20 μM; for 8-iso-Prostaglandin F2α generated: control 1.5 μg/mL
Protocol: LNCaP cells were obtained from the American Type Culture Collection (ATCC, Manassas, Va., Cat.# CRL-1740). 3.5 million cells from the prostate cancer line LNCaP were placed into each of three 10 cm culture dishes and allowed to grow overnight in complete RPMI 1640 media (Invitrogen, Carlsbad, Calif., Cat.#22400-105) with 10% fetal bovine serum (Invitrogen, Carlsbad, Calif., Cat#10438-026). Test compound was added into the dishes to the concentration of 0 and 20 μM and allowed to incubate at 37° C. in a 5% CO2 atmosphere for 2 and 24 hours. Following this the pH of the cell culture media was adjusted down to 3.5 with 2M HCl. After sitting at 4° C. for 15 minutes, the cell culture media from each culture dishes was applied to each of three C18 reverse phase columns (Biotage ISOLUTE, Part #220-0020-B, Lot #5223506B2A, www.biotage.com) which were prewashed with 10 mL/column of ethanol followed by 10 mL/column of deionized water. The loaded columns were then washed with 10 mL/column of water, followed by 10 mL/column of 15% ethanol, and finally 10 mL/column hexane. The desired samples were then eluted from the columns by addition of 10 mL/column ethyl acetate. The ethyl acetate was then evaporated to dryness using a rotating evaporator. Each sample was then dissolved in 500 μL of Assay Buffer provided in BioMol's Isoprostane Oxidative Stress Assay Kit A (Cat. # AK150-0001, Lot #3-08010825). Using the kit reagents according to the manufacturer's instructions the oxidative product 8-iso-Prostaglandin F2α was quantitated by ELISA. Also, using reagents from the kit a standard curve of oxidation product (8-iso-Prostaglandin F2α) versus optical density reading at 450 nm. From this curve optical density readings from the test samples were converted to μg/mL of the oxidation marker 8-iso-Prostaglandin F2α. This kit from BioMol is designed to determine the amount of the 8-iso-Prostaglandin F2α produced as a marker for the amount of oxidative stress experienced by the cells.

MCF7 (Breast) = experiment: Cell proliferation MTS assay, MCF7; conditions: Homo sapiens, 72 hours
Protocol: (§1) All cell lines were obtained from ATCC and cultured and plated according to ATCC recommendations. Cells were cultured in complete culture media containing 10% heat-inactivated fetal bovine serum (FBS, Mediatech, Inc.). For adherent cell lines, once cells reached 70% confluency, they were trypsinized and resuspended in phenol red free RPMI media (Mediatech, Inc.) plus 10% heat-inactivated FBS (assay buffer) and 100 μL aliquots were plated into each well of 96-well microtiter plates at a final density of 1,000-2,000 cells/well. Cells were incubated overnight at 37° C. in 5% CO2, and treated with test compounds on the next day. For suspension cell lines, cells were resuspended in assay buffer, plated into 96-well microtiter plates at a density of 10^4-10^5 cells/well/100 μL, and treatment was started on the same day. Cells were treated with vehicle (DMSO) and test compounds for 72 hours at concentration of 100, 70, 40, 20, 10, 5, 2.5, 1.25, 0.5 and 0.2 μM in four replicates at 37° C. in 5% CO2.

MDA-MB468 (Breast) = experiment: Cell proliferation MTS assay, MDA-MB468; conditions: Homo sapiens, MDA-MB-468, 72 hours
Protocol: as §1

H1299 cells = experiment: Cellular proliferation (Example B method), H1299; conditions: Homo sapiens, NCI-H1299; H1299, non-small cell lung cancer
Protocol: PC3 cells were obtained from the American Type Culture Collection (ATCC, Manassas, Va., Cat.# CRL-1435) Two thousand cells from the prostate cancer line PC3 were placed in 50 μL of complete RPMI 1640 media (Invitrogen, Carlsbad, Calif., Cat.#22400-105) with 10% fetal bovine serum (Invitrogen, Carlsbad, Calif., Cat.#10438-026) into each well of 96 well cell culture plates in a hexaplicate sampling pattern. A 50 μL aliquot of test compound (prepared from stock test compounds in DMSO diluted into media) was added to the appropriate well such that the final concentrations of test compound were 200, 40, 8, 1.6, 0.32, 0.064, 0.0128, 0.00256, and 0 μM and the final DMSO concentration was less than or equal to 0.2%.
The plates were incubated for 72 hours 37° C. in an atmosphere of 5% CO2. At the end of this time a 10 μL aliquot of WST solution (Roche Applied Science, Mannheim, Germany) was added into each of the wells. Cells were exposed to the WST solution for 4 hours. A SpectraMax Plus spectrophotometric plate reader (Molecular Devices, Sunnydale, Calif.) was then used to measure the optical density at 450 nm (OD450 nm). Sigmoidal curves were drawn for the dose responses and IC50 values were calculated using the software package GraphPad Prism4 (GraphPad Software, Inc., San Diego, Calif.).
Several other cancer cell lines were obtained from ATCC and grown according to their recommendations and treated with test compounds to obtain the concentration of test compound that inhibited the cellular proliferation by 50% of no-treatment controls. These IC50 values (μM) are listed in Table 7 below obtained by the methods described in Example B: […]

- IC50 (MCF7 (Breast)): 2.27 µM
- IC50 (MDA-MB468 (Breast)): 2.71 µM
- IC50 (H1299 cells): 0.951 µM
SMILES: O=c1cc(N2CCOCC2)oc2c(-c3ccc4c(c3)OCCO4)csc12 [Compound 28, 3-(2,3-dihydrobenzo[b][1,4]dioxin-6-yl)-5-morpholino-7H-thieno[3,2-b]pyran-7-one]
- OD450 nm reading (LNCaP cells; 2 hours exposure): 1.01 units
- 8-iso-Prostaglandin F2α generated (LNCaP cells; 2 hours): 18.0 µg/mL
- OD450 nm reading (LNCaP cells; 24 hours exposure): 0.96 units
- 8-iso-Prostaglandin F2α generated (LNCaP cells; 24 hours): 21.0 µg/mL
- increase of oxidation marker 8-iso-Prostaglandin F2α relative to untreated controls (LNCaP cells; 2 hours): 12 fold
- increase of oxidation marker 8-iso-Prostaglandin F2α relative to untreated controls (LNCaP cells; 24 hours): 14 fold
